Experimental data as given in patent US10550105B2 (Ribon Therapeutics Inc., priority 2018, dated 2020).

Target: PARP7 (Homo sapiens (Human), UniProt Q7Z3E1)
Assay: Enzymatic assay for inhibition of PARP7: TR-FRET displacement of biotinylated Probe A from the TIPARP active site
Assay type: binding
Conditions: Table A-1
In short: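 TR-FRET, ex 320 nm / em 615 and 665 nm. Signal ratio reflects complex formation.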

Sequence of PARP7 (Q7Z3E1 whole entry): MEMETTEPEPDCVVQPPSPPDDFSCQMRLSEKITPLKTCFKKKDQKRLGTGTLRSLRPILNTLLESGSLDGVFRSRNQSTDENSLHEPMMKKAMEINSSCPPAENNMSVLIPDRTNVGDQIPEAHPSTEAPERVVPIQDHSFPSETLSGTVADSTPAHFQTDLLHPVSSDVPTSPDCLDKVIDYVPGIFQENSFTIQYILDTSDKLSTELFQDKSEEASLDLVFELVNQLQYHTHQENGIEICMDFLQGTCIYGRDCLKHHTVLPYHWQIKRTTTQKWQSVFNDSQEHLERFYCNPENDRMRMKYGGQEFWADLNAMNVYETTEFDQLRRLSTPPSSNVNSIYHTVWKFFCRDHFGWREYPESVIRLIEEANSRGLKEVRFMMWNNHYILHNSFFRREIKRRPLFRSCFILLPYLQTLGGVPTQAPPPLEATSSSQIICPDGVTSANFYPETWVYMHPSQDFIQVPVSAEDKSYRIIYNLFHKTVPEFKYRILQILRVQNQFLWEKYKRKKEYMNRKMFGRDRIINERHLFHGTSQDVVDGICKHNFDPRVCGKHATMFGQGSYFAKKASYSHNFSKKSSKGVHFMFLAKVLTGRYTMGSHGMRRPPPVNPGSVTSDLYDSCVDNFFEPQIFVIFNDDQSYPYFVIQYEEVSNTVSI

| Compound | IC50 |
| --- | --- |
| O=C(CCOC[C@H](Cc1ccncc1)Nc1cn[nH]c(=O)c1C(F)(F)F)N1CCN(c2ncc(C(F)(F)F)cn2)CC1 [Example 647, (S)-5-((1-(3-Oxo-3-(4-(5-(trifluoromethyl)pyrimidin-2-yl)piperazin-1-yl)propoxy)-3-(pyridin-4-yl)propan-2-yl)amino)-4-(trifluoromethyl)pyridazin-3(2H)-one] | < 100 nM |
| N#Cc1ccc(N2CCC3(CCN(C(=O)CCOC[C@@H]4CCCN4c4cn[nH]c(=O)c4C(F)(F)F)CC3)C2)nc1 [Example 104, 6-[8-(3-[[(2S)-1-[6-oxo-5-(trifluoromethyl)-1,6-dihydropyridazin-4-yl]pyrrolidin-2-yl]methoxy]propanoyl)-2,8-diazaspiro[4.5]decan-2-yl]pyridine-3-carbonitrile] | ≥ 1000 nM |
| N#Cc1ccc(N2CCN(C(=O)CCOCCOc3cn[nH]c(=O)c3C(F)(F)F)CC2)nc1 [Example 501, 6-[4-[3-(2-[[6-Oxo-5-(trifluoromethyl)-1,6-dihydropyridazin-4-yl]oxy]ethoxy)propanoyl]piperazin-1-yl]pyridine-3-carbonitrile] | < 100 nM |
| C[C@H](COCCC(=O)N1CCN(c2ncc(Cl)cn2)CC1)Nc1cn[nH]c(=O)c1C(F)(F)F [Example 556, 5-[[(2R)-1-[3-[4-(5-Chloropyrimidin-2-yl)piperazin-1-yl]-3-oxopropoxy]propan-2-yl]amino]-4-(trifluoromethyl)-2,3-dihydropyridazin-3-one] | 100 to 1000 nM |
| COc1ccc(F)c2c1CN(c1cn[nH]c(=O)c1C(F)(F)F)C2 [Example 267, 5-(4-Fluoro-7-methoxyisoindolin-2-yl)-4-(trifluoromethyl)pyridazin-3(2H)-one] | < 100 nM |
| Cc1c(OCCOCCC(=O)N2CCN(c3ncc(Cl)cn3)CC2)cn[nH]c1=O [Example 549, 5-(2-[3-[4-(5-Chloropyrimidin-2-yl)piperazin-1-yl]-3-oxopropoxy]ethoxy)-4-methyl-2,3-dihydropyridazin-3-one] | < 100 nM |
| C[C@@H](COCCC(=O)N1CCN(c2ncc(Cl)cn2)CC1)Oc1cn[nH]c(=O)c1Cl (single isomer, unassigned) [Example 577 Isomer A] | < 100 nM |
| O=c1[nH]ncc(N2Cc3ccc(O[C@H]4CCCNC4)cc3C2)c1C(F)(F)F [Example 289, (S)-5-(5-(Piperidin-3-yloxy)isoindolin-2-yl)-4-(trifluoromethyl)pyridazin-3(2H)-one] | < 100 nM |
| N#Cc1ccc(N2CCN(C(=O)[C@H]3C[C@@H](OC[C@H]4CCN(c5cn[nH]c(=O)c5C(F)(F)F)C4)C3)CC2)nc1 [Example 121B, 6-(4-((1S,3S)-3-((1-(6-oxo-5-(trifluoromethyl)-1,6-dihydropyridazin-4-yl)pyrrolidin-3-yl)methoxy)cyclobutanecarbonyl)piperazin-1-yl)nicotinonitrile] | < 100 nM |
| CN(CCOCCC(=O)N1CCN(c2ccc(C#N)cn2)CC1)c1cn[nH]c(=O)c1C(F)(F)F [Example 510, 6-[4-[3-(2-[Methyl[6-oxo-5-(trifluoromethyl)-1,6-dihydropyridazin-4-yl]amino]ethoxy)propanoyl]piperazin-1-yl]pyridine-3-carbonitrile] | < 100 nM |
| O=c1[nH]ncc(N2Cc3ccnc(OCc4cccnc4)c3C2)c1C(F)(F)F [Example 15, 5-[4-(pyridin-3-ylmethoxy)-1H,2H,3H-pyrrolo[3,4-c]pyridin-2-yl]-4-(trifluoromethyl)-2,3-dihydropyridazin-3-one] | < 100 nM |
| N#Cc1ccc(N2CCN(C(=O)CNCCCOc3cn[nH]c(=O)c3C(F)(F)F)CC2)nc1 [Example 524] | 100 to 1000 nM |
| O=C(C[C@@H]1CC[C@@H]([C@@H]2CCCN2c2cn[nH]c(=O)c2C(F)(F)F)O1)N1CCN(c2ncc(C(F)(F)F)cn2)CC1 [Example 149A, 5-[(2S)-2-[(2S,5S)-5-(2-oxo-2-[4-[5-(trifluoromethyl)pyrimidin-2-yl]piperazin-1-yl]ethyl)oxolan-2-yl]pyrrolidin-1-yl]-4-(trifluoromethyl)-2,3-dihydropyridazin-3-one] | < 100 nM |
| COC[C@H](COCCC(=O)N1CCN(c2ncc(C(F)(F)F)cn2)CC1)Oc1cn[nH]c(=O)c1Br [Example 667, (R)-4-Bromo-5-((1-methoxy-3-(3-oxo-3-(4-(5-(trifluoromethyl)pyrimidin-2-yl)piperazin-1-yl)propoxy)propan-2-yl)oxy)pyridazin-3(2H)-one] | ≥ 1000 nM |
| O=C(CCOCCOc1cn[nH]c(=O)c1Br)N1CCN(c2ncc(Cl)cn2)CC1 [Example 547, 4-Bromo-5-(2-[3-[4-(5-chloropyrimidin-2-yl)piperazin-1-yl]-3-oxopropoxy]ethoxy)-2,3-dihydropyridazin-3-one] | < 100 nM |
| N#Cc1ccc(N2CCN(C(=O)c3cccc(OCCc4cccc5c4CN(c4cn[nH]c(=O)c4C(F)(F)F)C5)c3)CC2)nc1 [Example 401, 6-(4-(3-(2-(2-(6-Oxo-5-(trifluoromethyl)-1,6-dihydropyridazin-4-yl)isoindolin-4-yl)ethoxy)benzoyl)piperazin-1-yl)nicotinonitrile] | < 100 nM |

| Compound | IC50 |
| --- | --- |
| O=c1[nH]ncc(N2Cc3cc(F)c(OC4CCNCC4)cc3C2)c1C(F)(F)F [Example 279, 5-(5-Fluoro-6-(piperidin-4-yloxy)isoindolin-2-yl)-4-(trifluoromethyl)pyridazin-3(2H)-one] | < 100 nM |
| CN(C)c1cccc2c1CN(c1cn[nH]c(=O)c1C(F)(F)F)C2 [Example 178, 5-(4-(Dimethylamino)isoindolin-2-yl)-4-(trifluoromethyl)pyridazin-3(2H)-one] | < 100 nM |
| N#Cc1ccc(N2CCN(C(=O)CCOCCOc3cn[nH]c(=O)c3C#N)CC2)nc1 [Example 554, 5-(2-[3-[4-(5-Cyanopyridin-2-yl)piperazin-1-yl]-3-oxopropoxy]ethoxy)-3-oxo-2,3-dihydropyridazine-4-carbonitrile] | < 100 nM |
| N#Cc1ccc(N2CCN(C(=O)c3nccc(OCC4c5ccccc5CN4c4cn[nH]c(=O)c4C(F)(F)F)n3)CC2)nc1 (stereo not shown) [Example 46, 6-(4-[[4-([2-[6-oxo-5-(trifluoromethyl)-1,6-dihydropyridazin-4-yl]-2,3-dihydro-1H-isoindol-1-yl]methoxy)pyrimidin-2-yl]carbonyl]piperazin-1-yl)pyridine-3-carbonitrile] | < 100 nM |
| COCC1c2ccccc2CN1c1cn[nH]c(=O)c1C(F)(F)F (stereo not shown) [Example 239, 5-(1-(Methoxymethyl)isoindolin-2-yl)-4-(trifluoromethyl)pyridazin-3(2H)-one] | ≥ 1000 nM |
| O=C(CCOCCNc1cn[nH]c(=O)c1C(F)(F)F)N1CCN(c2ccc(C(F)(F)F)cn2)CC1 [Example 504, 5-[[2-(3-Oxo-3-[4-[5-(Trifluoromethyl)pyridin-2-yl]piperazin-1-yl]propoxy)ethyl]amino]-4-(trifluoromethyl)-2,3-dihydropyridazin-3-one] | < 100 nM |
| O=C(c1cncc(OC[C@@H]2c3ccccc3CN2c2cn[nH]c(=O)c2C(F)(F)F)c1)N1CCN(c2ccc(C(F)(F)F)cn2)CC1 [Example 384, (S)-4-(Trifluoromethyl)-5-(1-(((5-(4-(5-(trifluoromethyl)pyridin-2-yl)piperazine-1-carbonyl)pyridin-3-yl)oxy)methyl)isoindolin-2-yl)pyridazin-3(2H)-one] | < 100 nM |
| C[C@H]1C[C@@H](COCCC(=O)N2CCN(c3ccc(C#N)cn3)CC2)N(c2cn[nH]c(=O)c2C(F)(F)F)C1 [Example 78, 6-[4-(3-[[(2S,4S)-4-methyl-1-[6-oxo-5-(trifluoromethyl)-1,6-dihydropyridazin-4-yl]pyrrolidin-2-yl]methoxy]propanoyl)piperazin-1-yl]pyridine-3-carbonitrile] | < 100 nM |
| O=c1[nH]ncc(N2Cc3cccc(Oc4ccncc4)c3C2)c1C(F)(F)F [Example 232, 5-(4-(pyridin-4-yloxy)isoindolin-2-yl)-4-(trifluoromethyl)pyridazin-3(2H)-one trifluoroacetic acid] | < 100 nM |
| O=c1[nH]ncc(N2Cc3cc(OC4CCNCC4)cnc3C2)c1C(F)(F)F [Example 7, 5-[3-(piperidin-4-yloxy)-5H,6H,7H-pyrrolo[3,4-b]pyridin-6-yl]-4-(trifluoromethyl)-2,3-dihydropyridazin-3-one] | 100 to 1000 nM |
| N#Cc1ccc(N2CCN(C(=O)c3nccc(OC[C@@H]4CCCN4c4cn[nH]c(=O)c4C(F)(F)F)n3)CC2)nc1 [Example 66, 6-[4-[(4-[[(2S)-1-[6-oxo-5-(trifluoromethyl)-1,6-dihydropyridazin-4-yl]pyrrolidin-2-yl]methoxy]pyrimidin-2-yl)carbonyl]piperazin-1-yl]pyridine-3-carbonitrile] | < 100 nM |
| N#Cc1ccc(N2CCN(C(=O)c3cccc(OC[C@@H]4C[C@H](C#N)CN4c4cn[nH]c(=O)c4C(F)(F)F)c3)CC2)nc1 [Example 452, 6-(4-(3-(((2S,4S)-4-Cyano-1-(6-oxo-5-(trifluoromethyl)-1,6-dihydropyridazin-4-yl)pyrrolidin-2-yl)methoxy)benzoyl)piperazin-1-yl)nicotinonitrile] | < 100 nM |
| C[C@@H](COCCC(=O)N1CCN(c2ncc(C(F)(F)F)cn2)CC1)Nc1cn[nH]c(=O)c1Cl [Example 599, (S)-4-Chloro-5-(1-(3-oxo-3-(4-(5-(trifluoromethyl)pyrimidin-2-yl)piperazin-1-yl)propoxy)propan-2-ylamino)pyridazin-3(2H)-one] | < 100 nM |
| O=c1[nH]ncc(N2Cc3cccc(CO)c3C2)c1C(F)(F)F [Example 261, 5-(4-(Hydroxymethyl)isoindolin-2-yl)-4-(trifluoromethyl)pyridazin-3(2H)-one] | 100 to 1000 nM |
| C[C@H](COCCC(=O)N1CCN(c2ccc(C#N)cn2)CC1)Oc1cn[nH]c(=O)c1C(F)(F)F [Example 530B, 6-(4-[3-[(2R)-2-[[6-Oxo-5-(trifluoromethyl)-1,6-dihydropyridazin-4-yl]oxy]propoxy]propanoyl]piperazin-1-yl)pyridine-3-carbonitrile] | 100 to 1000 nM |
